This passage reports selectivity ratio and CC50 results from ChEMBL document CHEMBL5344434.

The structures appear in SMILES notation.

A short description of data set [1]: Selectivity index, ratio for cytotoxicity against human HepG2 cells after 48 hrs to antiviral activity against HEV Kernow-C1 infected in gaussia luciferase transfected HepG2 cells pre-infected with virus for 4 hrs followed by compound addition and measured after 48 hrs post infection. The note with it: read-out: Selectivity Index. The data set is classed as toxicity, cell-based.

Data set [2] can be described thus: Selectivity index, ratio for cytotoxicity against african green monkey Vero E6 cells after 48 hrs to antiviral activity against RVFV MP-12 infected in Vero E6 cells pre-infected with virus for 1 hr followed by compound addition and measured after 48 hrs post infection. The note with it: read-out: Selectivity Index. The data set is classed as toxicity, cell-based, Vero C1008.

Data set [3] is described as follows: Selectivity index, ratio for cytotoxicity against african green monkey Vero E6 cells after 24 hrs to antiviral activity against RVFV MP-12 infected in Vero E6 cells pre-infected with virus for 1 hr followed by compound addition and measured after 24 hrs post infection. The data set is classed as toxicity, cell-based, Vero C1008. The note with it: read-out: Selectivity Index.

Data set [4] can be described thus: Selectivity index, ratio for cytotoxicity against human Huh-7 cells after 48 hrs to antiviral activity against Chikungunya virus ECSA infected in Huh-7 cells expressing GFP pre-infected with virus for 1 hr followed by compound addition and measured after 48 hrs post infection. The data set is classed as toxicity, cell-based. The note with it: read-out: Selectivity Index.

Data set [5] is described as follows: Selectivity index, ratio for cytotoxicity against african green monkey Vero E6 cells after 48 hrs to antiviral activity against SARS-CoV-2 2019-nCoV Muc-IMB-1 infected in Vero E6 cells pre-infected with virus for 1 hr followed by compound addition and measured after 48 hrs post infection. The data set is classed as toxicity, cell-based, Vero C1008. The note with it: read-out: Selectivity Index.

A short description of data set [6]: Selectivity index, ratio for cytotoxicity against human HepG2 cells after 24 hrs to antiviral activity against HEV Kernow-C1 infected in gaussia luciferase transfected HepG2 cells pre-infected with virus for 4 hrs followed by compound addition and measured after 24 hrs post infection. The note with it: read-out: Selectivity Index. The data set is classed as toxicity, cell-based.

Data set [7] in a line: Selectivity index, ratio for cytotoxicity against human Huh-7 cells after 24 hrs to antiviral activity against Chikungunya virus ECSA infected in Huh-7 cells expressing GFP pre-infected with virus for 1 hr followed by compound addition and measured after 24 hrs post infection. The data set is classed as toxicity, cell-based. The note with it: read-out: Selectivity Index.
Data set [8] is described as follows: Selectivity index, ratio for cytotoxicity against african green monkey Vero E6 cells after 24 hrs to antiviral activity against SARS-CoV-2 2019-nCoV Muc-IMB-1 infected in Vero E6 cells pre-infected with virus for 1 hr followed by compound addition and measured after 24 hrs post infection. The data set is classed as toxicity, cell-based, Vero C1008. The note with it: read-out: Selectivity Index.

The subject of data set [9] is Vero C1008. In words: Cytotoxicity against african green monkey Vero E6 cells after 48 hrs by MTT assay. The data set is classed as toxicity, cell-based. The note with it: chlorocebus sabaeus, vero c1008, 48 h. (In general: Formazan colour is commonly taken as a measure of viable cells.)

`COC(=O)[C@H]1[C@@H](O)[C@@]2(O)c3c(OC)cc(Br)cc3O[C@@]2(c2ccc(OC)cc2)[C@@H]1c1ccccc1` (racemic): the selectivity ratio at 48 h in [1] was determined as 11; in data set [2] it was 23.1; in [4], 428; in [5], 20.9. For the same compound, the selectivity ratio at 24 h worked out at 38.4 in data set [3], 160 in [6], 637 in data set [7] and 29.5 in [8].

Consider `COC(=O)[C@H]1[C@@H](O)[C@@]2(O)c3c(Cl)cc(Cl)cc3O[C@@]2(c2ccc(OC)cc2)[C@@H]1c1ccccc1` (racemic), for which the selectivity ratio at 48 h in [1] came out at 8.2; in data set [2] it was 7; in [4], 44.9; in data set [5], 5.7. The selectivity ratio at 24 h in [3] worked out at 9.8; in data set [6], 31.7; in data set [7], 57.5; in data set [8], 9.

Regarding `CONC(=O)[C@H]1[C@@H](O)[C@@]2(O)c3c(Cl)cc(Br)cc3O[C@@]2(c2ccc(OC)cc2)[C@@H]1c1ccccc1` (racemic), in [9], the CC50 (commonly the concentration that lowers cell viability or growth by half) turned out to be 176 nM. Moreover, the selectivity ratio at 48 h in [1] is 5.7; in data set [2] it was 1.7; in data set [4] it was 317; in data set [5] it was 0.9. The selectivity ratio at 24 h in data set [3] worked out at 23.8; in [6], 123; in data set [7], 402; in [8], 19.5.
